Reference: the NIST ThermoML archive (doi:10.1021/je1013476)

Experiments:
[1] = xn = mol fraction of the nth substance listed; conditions: 101 kPa, Liquid; for viscosity: Capillary tube (Ostwald / Ubbelohde) method; for mass density: Vibrating tube method
[2] = excess molar enthalpy (molar enthalpy of mixing); xn = mol fraction of the nth substance listed; conditions: 303.15 K, 101 kPa, Liquid, Calvet calorimetry

CCOC(=O)OCC [diethyl carbonate] + CCO
[1]
Conditions	mass density [kg/m3]	viscosity [mPa·s]
288.15 K, x1 = 0.05544	813.88	1.181
288.15 K, x1 = 0.1	828.53	1.111
288.15 K, x1 = 0.197	856.33	0.996
288.15 K, x1 = 0.2998	881.02	0.917
288.15 K, x1 = 0.4062	902.55	0.864
288.15 K, x1 = 0.5039	919.48	0.838
288.15 K, x1 = 0.613	935.91	0.821
288.15 K, x1 = 0.6939	946.73	0.815
288.15 K, x1 = 0.7942	958.83	0.819
288.15 K, x1 = 0.8992	970.29	0.834
288.15 K, x1 = 0.9744	977.89	0.856
293.15 K, x1 = 0.05208	808.2	1.115
293.15 K, x1 = 0.09645	822.76	1.045
293.15 K, x1 = 0.1983	851.8	0.93
293.15 K, x1 = 0.2931	874.46	0.867
293.15 K, x1 = 0.4089	897.78	0.818
293.15 K, x1 = 0.4945	912.58	0.794
293.15 K, x1 = 0.6111	930.21	0.777
293.15 K, x1 = 0.6787	939.26	0.771
293.15 K, x1 = 0.7692	950.39	0.77
293.15 K, x1 = 0.8767	962.34	0.779
293.15 K, x1 = 0.9444	969.33	0.791
303.15 K, x1 = 0.04589	797.14	0.937
303.15 K, x1 = 0.09693	813.63	0.88
303.15 K, x1 = 0.1943	840.98	0.799
303.15 K, x1 = 0.2843	862.32	0.747
303.15 K, x1 = 0.4098	887.33	0.703
303.15 K, x1 = 0.5128	904.7	0.686
303.15 K, x1 = 0.6176	920.01	0.678
303.15 K, x1 = 0.6907	929.62	0.675
303.15 K, x1 = 0.7896	941.46	0.675
303.15 K, x1 = 0.8863	951.96	0.681
303.15 K, x1 = 0.9676	960.23	0.694
313.15 K, x1 = 0.04956	789.32	0.761
313.15 K, x1 = 0.09649	804.16	0.715
313.15 K, x1 = 0.207	834.28	0.647
313.15 K, x1 = 0.2847	852.21	0.618
313.15 K, x1 = 0.3982	874.66	0.591
313.15 K, x1 = 0.5049	892.56	0.578
313.15 K, x1 = 0.6079	907.66	0.574
313.15 K, x1 = 0.6227	909.67	0.573
313.15 K, x1 = 0.6895	918.3	0.575
313.15 K, x1 = 0.7826	929.4	0.58
313.15 K, x1 = 0.8924	941.3	0.594
313.15 K, x1 = 0.9563	947.79	0.606

[2]
Conditions	excess molar enthalpy [kcal/mol]
x1 = 0.06432	0.0943
x1 = 0.1113	0.152
x1 = 0.1833	0.226
x1 = 0.2439	0.276
x1 = 0.3034	0.317
x1 = 0.3739	0.356
x1 = 0.4258	0.378
x1 = 0.5066	0.395
x1 = 0.5445	0.395
x1 = 0.64	0.39
x1 = 0.7134	0.366
x1 = 0.7663	0.335
x1 = 0.8243	0.285
x1 = 0.8998	0.189
x1 = 0.9557	0.0946

CCOC(=O)OCC [diethyl carbonate] + CCCO
[1]
Conditions	mass density [kg/m3]	viscosity [mPa·s]
288.15 K, x1 = 0.05124	821.17	2.135
288.15 K, x1 = 0.07262	826.61	2.007
288.15 K, x1 = 0.1063	834.89	1.833
288.15 K, x1 = 0.1511	845.43	1.638
288.15 K, x1 = 0.2122	858.98	1.459
288.15 K, x1 = 0.2638	869.76	1.33
288.15 K, x1 = 0.31	878.92	1.248
288.15 K, x1 = 0.4016	895.92	1.115
288.15 K, x1 = 0.5147	915.01	1
288.15 K, x1 = 0.5916	926.96	0.947
288.15 K, x1 = 0.5994	928.13	0.937
288.15 K, x1 = 0.6906	941.32	0.905
288.15 K, x1 = 0.7887	954.53	0.871
288.15 K, x1 = 0.8694	964.81	0.859
288.15 K, x1 = 0.9428	973.71	0.865
293.15 K, x1 = 0.04957	816.57	1.906
293.15 K, x1 = 0.1001	829.1	1.657
293.15 K, x1 = 0.2101	853.96	1.315
293.15 K, x1 = 0.3074	873.57	1.132
293.15 K, x1 = 0.4038	891.34	1.01
293.15 K, x1 = 0.5097	909.09	0.92
293.15 K, x1 = 0.6002	923.04	0.868
293.15 K, x1 = 0.6963	936.76	0.829
293.15 K, x1 = 0.8059	951.25	0.804
293.15 K, x1 = 0.8817	960.76	0.796
293.15 K, x1 = 0.9433	968.14	0.796
303.15 K, x1 = 0.05148	808.69	1.495
303.15 K, x1 = 0.1008	820.63	1.329
303.15 K, x1 = 0.2044	843.53	1.087
303.15 K, x1 = 0.3161	865.57	0.93
303.15 K, x1 = 0.4048	881.45	0.847
303.15 K, x1 = 0.4459	888.41	0.818
303.15 K, x1 = 0.6	912.35	0.743
303.15 K, x1 = 0.6892	924.91	0.715
303.15 K, x1 = 0.792	938.39	0.697
303.15 K, x1 = 0.8809	949.35	0.692
303.15 K, x1 = 0.9364	955.95	0.692
313.15 K, x1 = 0.04668	798.89	1.214
313.15 K, x1 = 0.1008	811.63	1.071
313.15 K, x1 = 0.2119	835.52	0.885
313.15 K, x1 = 0.3075	854.04	0.783
313.15 K, x1 = 0.4133	872.66	0.71
313.15 K, x1 = 0.5019	886.95	0.668
313.15 K, x1 = 0.5998	901.56	0.637
313.15 K, x1 = 0.6913	914.21	0.618
313.15 K, x1 = 0.7902	926.98	0.607
313.15 K, x1 = 0.8456	933.82	0.608
313.15 K, x1 = 0.8699	936.73	0.606
313.15 K, x1 = 0.8903	939.21	0.607
313.15 K, x1 = 0.9488	946.12	0.61

[2]
Conditions	excess molar enthalpy [kcal/mol]
x1 = 0.05945	0.103
x1 = 0.1227	0.196
x1 = 0.1956	0.281
x1 = 0.2498	0.328
x1 = 0.2677	0.344
x1 = 0.3018	0.371
x1 = 0.3762	0.42
x1 = 0.4569	0.441
x1 = 0.4906	0.446
x1 = 0.5642	0.451
x1 = 0.6182	0.442
x1 = 0.6932	0.417
x1 = 0.7453	0.38
x1 = 0.824	0.312
x1 = 0.872	0.248
x1 = 0.9168	0.174
